According to patent publication US20150005347A1, “NITROGEN-CONTAINING HETEROCYCLIC DERIVATIVE HAVING 2-IMINO GROUP AND PEST CONTROL AGENT INCLUDING THE SAME” (MEIJI SEIKA PHARMA CO., LTD., priority 2012, published 2015):
Where two headings read alike, the source gives them in different places.

Columns and labels:
Format in all cases: in vivo
[1] = test system: Sogatella furcifera exhibiting drug resistance to fipronil; test: Foliar spray test, Sogatella furcifera exhibiting drug resistance to fipronil; conditions: 96 h, read-out: mortality of larvae
Protocol: Test Example 17 Pest Control Test of Sogatella furcifera
A drug solution of the compound of the present invention at a predetermined concentration, which had been prepared so as to be a 10% acetone water (0.05% Tween20 available), was foliar sprayed to a rice seedling in pot culture. […] Thereafter, the larvae were left to stand in a thermostatic chamber (16 hours of light period-8 hours of dark period) at 25° C. […] Test in duplicate.
(§1) Mortality of larvae(%)={number of dead larvae/(number of survived larvae+number of dead larvae)}×100
Further, for the origin of test pests, insects of Sogatella furcifera collected outdoors within the city of Odawara in 2010 were used.

Sogatella furcifera = test: Pest control test of Sogatella furcifera, soil irrigation treatment
Protocol: Test Example 11 Pest Control Test of Sogatella furcifera
(§2) A rice seedling in pot culture was subjected to soil irrigation treatment with a drug solution of the compound of the present invention at a predetermined concentration, which had been prepared so as to be a 10% acetone water. Three days after the treatment, ten second instar larvae of Sogatella furcifera were each released thereto. Thereafter, the larvae were left to stand in a thermostatic chamber (16 hours of light period-8 hours of dark period) at 25° C. […] The test was performed in duplicate.
as §1

[2] = test system: Laodelphax striatella exhibiting drug resistance to fipronil; test: Soil irrigation test, Laodelphax striatella exhibiting drug resistance to fipronil
Protocol: Test Example 20 Pest Control Test of Laodelphax striatella
as §2, with “Three days after the treatment, ten second instar larvae of Sogatella furcifera were each released thereto.” left out
as §1
In addition, for the origin of test pests, bugs collected within the Kumamoto prefecture in 2006 as the drug resistant Laodelphax striatella, and bugs successively reared indoors for a long time as the susceptible populations of Laodelphax striatella were used.

Nilaparvata lugens = test: Pest control test of Nilaparvata lugens, soil irrigation treatment; conditions: soil irrigation treatment
Protocol: Test Example 12 Pest Control Test of Nilaparvata lugens
as §2, with “Nilaparvata lugens” for “Sogatella furcifera”
as §1

Plutella xylostella = Plutella xylostella control test, cabbage leaf disk foliar spray; conditions: Plutella xylostella, foliar
Summary of the method: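 Cabbage leaf disks (5.0 cm) were sprayed with compound in 50% acetone water with 0.05% Tween20, air-dried, then infested with second instar larvae. Disks were held at 25° C under 16 h light/8 h dark, in duplicate. Percent larval mortality was calculated as dead over total larvae.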

Callosobruchus chinensis = test: Pest control test against Callosobruchus chinensis, topical treatment of adults
Protocol: Test Example 5 Pest control test against Callosobruchus chinensis
1 μL (/head) of a drug solution of the compound of the present invention prepared at a predetermined concentration with acetone was treated to the back of Callosobruchus chinensis adults. After the drug treatment, the adults were transferred to a plastic cup and left to stand in a thermostatic chamber at 25° C.
Rate of agonized adults(%)={number of dead adults/(number of survived adults+number of dead adults)}×100

Musca domestica = test: Pest control test of Musca domestica adults, sucrose pledget; conditions: 50 ppm in 40% sucrose liquid; four days after release
Protocol: Test Example 21 Pest Control Test of Musca domestica
A drug solution of the compound of the present invention, which had been adjusted to be 50 ppm with a 40% sucrose liquid, was adsorbed on a pledget, and the pledget was put into a vial. Two adults reared indoors were released thereto. Thereafter, the adults were left to stand indoors at room temperature of 25° C. […] When two adults were all agonized in death, it was judged to be effective.

Oulema oryzae = test: Pest control test of Oulema oryzae, soil irrigation treatment; conditions: 0.05 mg/seedling, three days after release
Protocol: Test Example 13 Pest Control Test of Oulema oryzae
as §2, with “two” for “ten”, “Oulema oryzae” for “Sogatella furcifera”
as §1

[3] = test system: Haemaphysalis longicornis; test: Pest control test of Haemaphysalis longicornis on the body surface of a dog; conditions: 72 h, read-out: mortality of mites
Protocol: Test Example 25 Pest Control Test of Haemaphysalis longicornis
Three petri dishes with a diameter of 9 cm and a height of 1 cm were adhered to the back of a dog. Compound 1-20 of the present invention was dissolved in ethanol so as to be 5.35 mg/mL, and the mixture was added dropwise to the body surface of the dog in the petri dish. The petri dish was sufficiently dried, and then thirty young mites of Haemaphysalis longicornis were released thereto. Each dog was housed in a cage and reared under conditions of 10 hours of light period and 14 hours of dark period at 23° C. Three days after the release, the petri dishes were detached therefrom to measure the numbers of living and dead mites and blood-sucking individuals of young mites, and the mortality of mites was calculated according to the following equation.
Mortality of mites(%)={number of dead mites/(number of survived mites+number of dead mites)}×100

[4] = read-out: % Mortality, Test Example1 Plutella xylostella

FC(F)(F)C(=S)/N=c1\ccccn1Cc1ccc(Cl)nc1 [Compound 1-20, N-[1-((6-chloropyridin-3-yl)methyl)pyridin-2(1H)-ylidene]-2,2,2-trifluoroethanethioamide]
mortality at 20 ppm [1]: ≥ 80%
% Mortality, Test Example 11 Sogatella furcifera (Sogatella furcifera; 0.005 mg/pot): 53%
% Mortality, Test Example 11 Sogatella furcifera (Sogatella furcifera; 0.01 mg/pot): 88%
Insecticidal effects against Laodelphax striatella (mortality of larvae %), Drug resistant populations six days after the treatment ([2]; Rate 0.005 mg/pot, drug resistant populations): 79%
insecticidal effects against drug resistant Laodelphax striatella ([2]; fipronil-resistant): high insecticidal effects
mortality of larvae against drug resistant populations compared with susceptible populations of Laodelphax striatella ([2]; fipronil-resistant vs susceptible): equivalent mortality of larvae
% Mortality, Test Example 12 Nilaparvata lugens (Nilaparvata lugens; 0.005 mg/pot): 80%
% Mortality, Test Example 12 Nilaparvata lugens (Nilaparvata lugens; 0.01 mg/pot): 85%
% Mortality, Test Example 12 Nilaparvata lugens (Nilaparvata lugens; 0.05 mg/pot): 100%
mortality at 100 ppm (Plutella xylostella; 72 h, read-out: mortality of larvae): ≥ 80%
mortality at 5 ppm (Plutella xylostella; [4]): 50%
mortality at 20 ppm (Plutella xylostella; [4]): 100%
mortality at 100 ppm (Plutella xylostella; [4]): 100%
mortality of adults (Callosobruchus chinensis; 0.1 μg/head on the back of adults, twenty four hours after treatment): ≥ 80%
% Mortality, Test Example5 Callosobruchus chinensis (Callosobruchus chinensis; Concentration 10 (ppm)): 100%
% Mortality, Test Example5 Callosobruchus chinensis (Callosobruchus chinensis; Concentration 100 (ppm)): 100%
activity against adults (effective when two adults were all agonized in death) (Musca domestica): all the adults are agonized in death
mortality of larvae (Oulema oryzae): ≥ 80%
mortality at 5350 µg/mL [3]: 100%
